Results on 6 molecules are retold here after US20260256731A1, “RETINAL VASODILATOR AND PHARMACEUTICAL COMPOSITION” (TEIKYO UNIVERSITY, priority 2022, published 2026).

Read-outs that look alike come from different tables or passages of the source.

One experiment has as its system porcine retinal artery. Description: Retinal vasodilation test using porcine retinal extraction artery. Type of experiment: cell-based, pig. On the procedure: Pigs aged 8 to 12 weeks were euthanized. Immediately after euthanization, the eyeballs were excised. A retinal artery was separated from the excised eyeballs (Nagaoka et al., Invest Ophthalmol Vis Sci. 2007 February; 48(2):825-32.). An anterior eye part and a vitreous body were carefully taken out with an anatomical microscope. A posterior eye part was placed in an ice-cold dissection chamber containing a physiological saline solution (PSS: 145.0 mM NaCl, 4.7 mM KCl, 2.0 mM CaCl2), 1.17 mM MgSO4, 1.2 mM NaH2PO4, 5.0 mM glucose, 2.0 mM pyruvic acid, 0.02 mM EDTA, and 3.0 mM [3-(N-morpholino) propanesulfonic acid] (MOPS)) to which 1% albumin was added. A single secondary retinal artery (in-situ inner diameter: 90 to 130 μm, length: 0.6 to 1.0 mm) was carefully dissected using a Dumont microdissection forceps (Fine Science Tools, Inc., Foster City, CA) under observation with a stereomicroscope (model SZX12; Olympus, Melville, NY). After carefully removing the remaining nerve tissue and connective tissue, an artery was transferred to a Lucite-made blood vessel chamber into which a PSS-albumin solution equilibrated with air at room temperature was added for cannula insertion. A glass micro pipette (outer diameter of distal end: 30 to 40 μm) filled with the PSS-albumin solution was used to cannulate one end of the artery, and the outside of the artery was firmly tied to a pipette with 11-0 ophthalmic suture (Alcon, Fort Worth, TX). The other end of the blood vessel was cannulated with a second micro pipette and fixed with a suture. After the cannula insertion, the blood vessel and the pipette were transferred to the stage of an inverted microscope (model CKX41, Olympus); and a video camera (Sony DXC-190, Labtek, Campbell, CA), a video micrometer (Cardiovascular Research Institute, Texas A&M System Health Science Center, College Station, TX), and a data collection system (PowerLab, ADInstruments, Colorado Springs, CO) were connected to each other. Thereafter, the inner diameter was continuously measured and recorded during the experiment. The micro pipette was connected to an independent pressure reservoir (a 30 mL glass syringe). The blood vessel was pressurized to a lumen pressure of 55 cm H2O (40 mmHg) by adjusting the height of the reservoir.
The cannula-inserted arteriole was immersed in PSS at 36° C. to 37° C. to generate a basal tone. […] After the control reaction was terminated, the blood vessel was washed with PSS, and the basal tone was re-generated. […]
(§1) The blood vessel was relaxed with EDTA (1 mM)-calcium-free PSS, and the maximum diameter was obtained at a lumen pressure of 55 cmH2O. The change in diameter of the blood vessel in response to nobiletin was standardized by the maximum vasodilation and expressed as a percentage with respect to the maximum vasodilation. […]

In experiment [1] the test system is porcine retinal artery denuded of endothelium. Description: Retinal vasodilation test using porcine retinal extraction artery denuded of endothelium (CHAPS). Type of experiment: cell-based, pig. The conditions noted are these: n=11, FIG. 3 (Example 3). On the procedure:
(§2) Pigs aged 8 to 12 weeks were euthanized. Immediately after euthanization, the eyeballs were excised. A retinal artery was separated from the excised eyeballs (Nagaoka et al., Invest Ophthalmol Vis Sci. 2007 February; 48(2):825-32.). An anterior eye part and a vitreous body were carefully taken out with an anatomical microscope. A posterior eye part was placed in an ice-cold dissection chamber containing a physiological saline solution (PSS: 145.0 mM NaCl, 4.7 mM KCl, 2.0 mM CaCl2), 1.17 mM MgSO4, 1.2 mM NaH2PO4, 5.0 mM glucose, 2.0 mM pyruvic acid, 0.02 mM EDTA, and 3.0 mM [3-(N-morpholino) propanesulfonic acid] (MOPS)) to which 1% albumin was added. A single secondary retinal artery (in-situ inner diameter: 90 to 130 μm, length: 0.6 to 1.0 mm) was carefully dissected using a Dumont microdissection forceps (Fine Science Tools, Inc., Foster City, CA) under observation with a stereomicroscope (model SZX12; Olympus, Melville, NY). […] Thereafter, the inner diameter was continuously measured and recorded during the experiment. […]
The blood vessel was relaxed with EDTA (1 mM)-calcium-free PSS, and the maximum diameter was obtained at a lumen pressure of 55 cmH2O. The change in diameter of the blood vessel in response to nobiletin was standardized by the maximum vasodilation and expressed as a percentage with respect to the maximum vasodilation.

Experiment [2] has as its system porcine retinal artery treated with ODQ. Description: Retinal vasodilation test using porcine retinal extraction artery treated with ODQ (guanylate cyclase inhibitor). In kind it is cell-based, pig. As for the experimental part:
as §2, with “added.” for “added. A single secondary retinal artery (in-situ inner diameter: 90 to 130 μm, length: 0.6 to 1.0 mm) was carefully dissected using a Dumont microdissection forceps (Fine Science Tools, Inc., Foster City, CA) under observation with a stereomicroscope (model SZX12; Olympus, Melville, NY).”
as §1
In the same manner as in Example 1, the porcine retinal extraction artery was treated with ODQ, and the role of guanylate cyclase in the retinal vasodilating effect of nobiletin was evaluated (n=7).

A further experiment deals with rat aorta. The conditions noted are these: pre-contracted with phenylephrine; vascular endothelium-independent; cited from earlier work.
The test system of a further experiment is rat mesenteric artery. The conditions noted are these: pre-contracted with phenylephrine; vascular endothelium-dependent; cited from earlier work.
The test system of another experiment is rat pulmonary artery. The conditions noted are these: cited from earlier work.
A further experiment has as its system retinal blood vessel. Conditions: cited from earlier work.

`COc1ccc(-c2cc(=O)c3c(OC)c(OC)c(OC)c(OC)c3o2)cc1OC` [Nobiletin, 2-(3,4-Dimethoxyphenyl)-5,6,7,8-tetramethoxychromen-4-one]: in the experiment with porcine retinal artery (FIG. 1 (Example 1)), the “retinal vasodilating effect compared with positive control SNP” value was “higher than that of SNP”. Also, the Maximum vasodilation rate in the experiment with porcine retinal artery (concentration 10^-4M, percentage with respect to the maximum vasodilation) worked out at 90%. Also, the retinal vasodilating effect entry in the experiment on porcine retinal artery (extracted porcine retinal artery, FIG. 1 (Example 1)) was “strong retinal vasodilating effect in a dose-dependent manner”. In addition, the “vasodilating action in comparison with known medications” value in the experiment on porcine retinal artery (influence of the solvent excluded, Table 1) is reported as “most powerful vasodilating action”. Also, in experiment [1], the “vasodilating effect in artery with vascular endothelium removed (denudation) compared with artery not denuded” value is listed as “suppressed”. Moreover, the “retinal vasodilating effect after treating the blood vessel with ODQ” value in experiment [2] (ODQ 0.1 μM, 30 minutes, FIG. 1 (Example 1)) was “suppressed”. Besides, in experiment [2] (n=7, FIG. 4 (Example 4)), the “retinal vasodilating effect after addition of ODQ” value is on record as “suppressed”. Moreover, the vasodilating action result in the experiment with rat aorta and in the experiment on rat mesenteric artery was “vasodilating action” in each case. Also, in the experiment with rat pulmonary artery, the vasodilator response result is on record as “did not occur”.
On to `CC#CCC(C)[C@H](O)/C=C/[C@@H]1[C@H]2c3cccc(CCCC(=O)O)c3O[C@H]2C[C@H]1O` (mixture of isomers) [Beraprost], for which, in the experiment with retinal blood vessel (concentration 10^-7M), the Maximum vasodilation rate is 70%.
As for `O=C1CCc2cc(OCCCCc3nnnn3C3CCCCC3)ccc2N1` [Cilostazol], the Maximum vasodilation rate in the experiment on retinal blood vessel (concentration 10^-5M) is reported as 40%.
With `CCCCCCCC(=O)CC[C@@H]1[C@@H](C/C=C\CCCC(=O)O)[C@@H](O)C[C@H]1O` [Unoprostone], the Maximum vasodilation rate in the experiment on retinal blood vessel (concentration 10^-5M) was 30%.
In the case of `Oc1ccc(C=Cc2cc(O)cc(O)c2)cc1` [Resveratrol], the Maximum vasodilation rate with retinal blood vessel (concentration 10^-4M) was 60%.

B1: Adiponectin (protein, UniProt Q15848 19-244, looked up)
Adiponectin: ETTTQGPGVLLPLPKGACTGWMAGIPGHPGHNGAPGRDGRDGTPGEKGEKGDPGLIGPKGDIGETGVPGAEGPRGFPGIQGRKGEPGEGAYVYRSAFSVGLETYVTIPNMPIRFTKIFYNQQNHYDGSTGKFHCNIPGLYYFAYHITVYMKDVKVSLFKKDKAMLFTYDQYQENNVDQASGSVLLHLEVGDQVWLQVYGEGERNGLYADNDNDSTFTGFLLYHDTN
For the molecule B1, the Maximum vasodilation rate in the experiment with retinal blood vessel (concentration 8 μg/mL) is given as 50%.
